Reference: patent EP0385445A2, “Method of forming a suspension and composition formed by said method” (Horikoshi, Isamu, priority 1989, dated 1990)
Where a SMILES comes first, the peptide text is derived from it. Bridges are numbered along the chain shown (N, C = ends).

Columns and labels:
[1] = Concentration of eel calcitonin in blood after injection into the duodenum (Example 11); assay type: in vivo, Wistar male rats; conditions: male, Wistar, rat, 50 ug per rat, 100 µg/ml, 0.5 ml into the duodenum
Protocol: Wistar male rats each weighing ca. 200 g were cannulated at the duodenum and tail vein under anesthetization with either and restrained in Bollman cages. […] A control group was injected with 0.5 ml of PBS(-), and a calcitonin control group was injected with 0.5 ml of a solution of calcitonin in phosphate buffer saline (100 µg/ml). Blood samples were taken from these control-groups according to the same schedule as in the case of the emulsion treated group. Thirty minutes before the administration of calciton, calcium chloride in physiological saline was administered intraperitoneally in an amount of 60 mg/kg in order to stimulate the secretion of endogenous calcitonin. Each rat group consisted of 6 animals.

[2] = Oral absorption of lipid-soluble drugs reduced to microspheres with MFGM; conditions: drug reduced to microspheres with MFGM
[3] = Measurement of emulsion activity (light transmittance); assay type: physicochemical; conditions: emulsion containing the labelled fat or oil; Fig. 6
Protocol: After heating at 40 - 45°C for 5 minutes, the mixture was stirred with a Polytron homogenizer at a maximum speed for 1 minute to obtain an emulsion (which contained 5 wt% of the oil).
Each of the emulsions was put into a test tube, which was readjusted to a vertical position and left to stand at room temperature. At given time intervals, 0.2-ml portions of each emulsion were collected from the bottom of the test tube and mixed with 3.8 ml of an aqueous solution of 0.1% sodium dodecylsulfate. The light transmittance of each sample was measured under various conditions and the results of measurements are shown in Figs. 3 - 6.

[4] = Absorption of vitamin A through lymphatic vessels after injection of emulsions into the loop of small intestines; assay type: in vivo, Wistar male rats
Protocol: Wistar male rats each weighing about 400 g were starved for 24 hours. The starved rats were anesthetized by intraperitoneal administration of pentobarbital. Thereafter, the rats were incised in the belly and silicon cannulas were inserted into the area between the pylorus of the stomach and the duodenum and into the ileocecal area. Through the upper cannula, liquid drugs (5 ml) composed of the emulsions prepared in Example 1 were injected into the loop of small intestines (duodenum, jejunum and ileum) and the cannula was closed with a clamp.
Blood and lymph fluid were collected from the hip artery and the lymph in the thoracic duct at given time intervals and the concentrations of vitamin A in the two fluids were measured. A similar experiment was conducted on biliary fistula rats from which bile was excreted through a cannula inserted into the bile duct, and comparison was made with intact rats which had not received such a treatment.
[…] After extraction with cyclohexane, the concentration of vitamin A in each sample was measured by fluorometry at 480 nm with fluorescence excited at 340 nm. After being absorbed by the small intestines, vitamin A forms chylomicron, the greater part of which is known to be transferred into the lymph system, not the blood system.

[5] = rat, in vivo
Protocol: Wistar male rats each weighing ca. 300 g were starved overnight. Thereafter, their skin above the right common carotid artery was incised and a cannula was inserted into the artery. […] The so prepared emulsion was administered orally to the rats. […] The dose of hydrocortisone was 1.5 mg/kg. After hydrocortisone administration, blood samples were taken at regular time intervals. Feces and urine were collected and the rats were killed 49 hours after the administration. The digestive tracts, their contents and various organs were separated and the content of hydrocortisone in each site was determined by radioactivity measurement.

Molecule CC(C)C[C@H](NC(=O)[C@H](CCCCN)NC(=O)CNC(=O)[C@H](CC(C)C)NC(=O)[C@@H](NC(=O)[C@@H]1CSSC[C@H](N)C(=O)N[C@@H](CO)C(=O)N[C@@H](CC(N)=O)C(=O)N[C@@H](CC(C)C)C(=O)N[C@@H](CO)C(=O)N[C@@H]([C@@H](C)O)C(=O)N1)C(C)C)C(=O)N[C@@H](CO)C(=O)N[C@@H](CCC(N)=O)C(=O)N[C@@H](CCC(=O)O)C(=O)N[C@@H](CC(C)C)C(=O)N[C@@H](Cc1c[nH]cn1)C(=O)N[C@@H](CCCCN)C(=O)N[C@@H](CC(C)C)C(=O)N[C@@H](CCC(N)=O)C(=O)N[C@H](C(=O)N[C@@H](Cc1ccc(O)cc1)C(=O)N1CCC[C@H]1C(=O)N[C@@H](CCCNC(=N)N)C(=O)N[C@H](C(=O)N[C@@H](CC(=O)O)C(=O)N[C@H](C(=O)NCC(=O)N[C@@H](C)C(=O)NCC(=O)N[C@H](C(=O)N1CCC[C@H]1C(N)=O)[C@@H](C)O)C(C)C)[C@@H](C)O)[C@@H](C)O [Calcitonin treated] (H-CSNLSTCVLGKLSQELHKLQTYPRTDVGAGTP-NH2; disulfide 1-7 (inferred); N-terminus and C-terminus assumed) has a level at 0 h [1]; 0 of 0.1 ± 0.08 ng/mL, a level at 0.5 h ([1]; 30 min.) of 0.7 ± 0.09 ng/mL and a level at 1 h ([1]; 60 min.) of 0.7 ± 0.22 ng/mL. For the same molecule, the level at […] ([1]; 90 min.) was 0.8 ± 0.31 ng/mL and the level at 2 h ([1]; 120 min.) was 0.6 ± 0.4 ng/mL.
In the case of COC1=C(OC)C(=O)C(CCCCCCCCCCO)=C(C)C1=O [avan], the “ability of MFGM to promote the absorption” value [2] is reported as “also observed”.
With CCCCCCCC/C=C\CCCCCCCC(=O)OCC(O)CO (stereo not drawn) [monoolein] the “increase in emulsion activity” value [3] was “least increase”.
In the case of CCCCCCCC/C=C\CCCCCCCC(=O)O [oleic acid], the “increase in emulsion activity” value [3] is reported as “highest increase” and the “concentration of vitamin A in lymph (ranking)” value ([4]; intact rats, emulsion in labelled fat or oil, content 5%, vitamin A 2.5 mg per rat, Fig. 9) is reported as “lowest level”.
In the case of Tween 80, the “residual in the body” value [5] is reported as 12.41 % of dose.
With vitamin A the “concentration of vitamin A in lymph” value ([4]; rat, in vivo) was “dropped to very low levels” and the “vitamin A in the blood” value ([4]; rat, in vivo) was “hardly detectable”.
